36 compounds from ChEMBL document CHEMBL1133626, “GRid-INdependent descriptors (GRIND): a novel class of alignment-independent three-dimensional molecular descriptors” (J Med Chem, 2000) can be followed below.

The target of experiment [1] is T1, Corticosteroid-binding globulin (Homo sapiens) (UniProt P08185).
T1 sequence (whole entry): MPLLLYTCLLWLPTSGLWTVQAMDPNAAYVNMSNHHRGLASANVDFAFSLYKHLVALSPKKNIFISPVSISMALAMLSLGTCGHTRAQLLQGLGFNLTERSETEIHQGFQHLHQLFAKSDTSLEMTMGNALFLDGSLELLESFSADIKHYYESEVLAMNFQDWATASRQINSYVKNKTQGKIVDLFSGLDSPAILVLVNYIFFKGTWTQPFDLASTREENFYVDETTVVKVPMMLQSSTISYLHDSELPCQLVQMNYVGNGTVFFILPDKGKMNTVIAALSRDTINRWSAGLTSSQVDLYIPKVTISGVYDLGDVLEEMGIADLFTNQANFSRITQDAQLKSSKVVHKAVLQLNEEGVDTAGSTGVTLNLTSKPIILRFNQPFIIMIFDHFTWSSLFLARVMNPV
Put plainly: (§1) Binding affinity to the corticosteroid-binding globulin (CBG) receptor.

The target in experiment [2] is 5-hydroxytryptamine receptor 2A (Rattus norvegicus, UniProt P14842). Put plainly: Kinetic inhibition constant evaluated by measuring serotonergic activity.
5-hydroxytryptamine receptor 2A, sequence (P14842 whole entry): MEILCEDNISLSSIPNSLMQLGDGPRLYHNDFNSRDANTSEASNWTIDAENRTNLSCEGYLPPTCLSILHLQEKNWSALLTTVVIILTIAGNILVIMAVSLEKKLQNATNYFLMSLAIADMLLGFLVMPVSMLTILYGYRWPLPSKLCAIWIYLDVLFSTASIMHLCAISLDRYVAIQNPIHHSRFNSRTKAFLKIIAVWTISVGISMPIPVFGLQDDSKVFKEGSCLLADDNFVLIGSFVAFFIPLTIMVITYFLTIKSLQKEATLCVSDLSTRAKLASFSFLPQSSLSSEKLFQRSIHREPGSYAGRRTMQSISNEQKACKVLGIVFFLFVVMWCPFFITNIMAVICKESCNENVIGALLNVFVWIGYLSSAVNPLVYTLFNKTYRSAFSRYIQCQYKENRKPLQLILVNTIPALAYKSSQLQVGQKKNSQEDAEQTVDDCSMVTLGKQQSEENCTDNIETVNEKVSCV
Experiment [3] in a line: Binding affinity of the Corticosteroid-Binding Globulin Receptor with androstenediol.
Experiment [4] can be described thus: Kinetic inhibition constant was evaluated by measuring the inhibition of the glycogen phosphorylase (GP).
The nature of experiment [5]: Binding affinity of the Corticosteroid-Binding Globulin Receptor with corticosterone.
The nature of experiment [6]: Binding affinity of the Corticosteroid-Binding Globulin Receptor with dehydroepiandrosterone.
A short description of experiment [7]: as §1.
The nature of experiment [8]: Binding affinity of the Corticosteroid-Binding Globulin Receptor with cortisol.
The nature of experiment [9]: Binding affinity of the Corticosteroid-Binding Globulin Receptor with androstenedione.
Experiment [10] is described as follows: Binding affinity of the Corticosteroid-Binding Globulin Receptor with deoxy-corticosterone.
Experiment [11] in a line: Binding affinity of the Corticosteroid-Binding Globulin Receptor with androstanediol.
Experiment [12] can be described thus: Binding affinity of the Corticosteroid-Binding Globulin Receptor with androsterone.
For experiment [13], the target named is T1, Corticosteroid-binding globulin (Homo sapiens).

`C[C@]12CC[C@H](O)C[C@@H]1CC[C@@H]1[C@@H]2CC[C@]2(C)[C@@H](O)CC[C@@H]12`: in experiment [1], the Log K turned out to be 5.

In [2], `O=C(CCCN1CCN(CCC2CC3=CC=CC3C2=O)CC1)c1ccc(F)cc1` (centres undefined) had a Ki of 42.7 nM.

As for `NC(=O)C1OC(CO)C(O)C(O)C1O` (stereo in doubt; 3), in experiment [3], the Log K is 5. The compound also yielded a pKi in experiment [4] of 3.36.

In the case of `CC(=O)[C@@]1(O)CC[C@H]2[C@@H]3CCC4=CC(=O)CC[C@]4(C)[C@H]3CC[C@@]21C`, the Log K in experiment [1] is 7.74.

In [5], `NC(=O)N[C@H]1O[C@H](CO)[C@@H](O)[C@H](O)[C@H]1O` displayed a Log K of 7.88. The negative-log Ki (pKi) in experiment [4] turned out to be 3.85.

For `CC(=O)[C@H]1CC[C@H]2[C@@H]3CCC4=CC(=O)CC[C@]4(C)[C@H]3C(=O)C[C@]12C`, the Log K in experiment [1] came to 6.78.

Regarding `NN1C(=O)N[C@@]2(O[C@@H](CO)[C@@H](O)[C@H](O)[C@@H]2O)C1=O`, the Log K in experiment [6] came out at 5. This compound also displayed a negative logarithm of the Ki (pKi) in experiment [4] of 3.84.

On to `C[C@]12C[C@@H](O)[C@H]3[C@@H](CCC4=CC(=O)CC[C@@]43C)[C@@H]1CC[C@@H]2C(=O)CO`, for which, in [7], the Log K turned out to be 6.78.

For `COC(=O)N[C@]1(C(N)=O)O[C@H](CO)[C@@H](O)[C@H](O)[C@H]1O`, the Log K in experiment [8] was 7.88. For the same compound, the pKi in [4] was 4.8.

With `CC(=O)[C@H]1CC[C@H]2[C@@H]3CC=C4C[C@@H](O)CC[C@]4(C)[C@H]3CC[C@]12C`, the Log K in [1] turned out to be 5.25.

`C[C@]12CCC(=O)C=C1CC[C@@H]1[C@@H]2CC[C@]2(C)C(=O)CC[C@@H]12`: in experiment [1], the Log K worked out at 5.76.

`COC(=O)C1OC(CO)C(O)C(O)C1O` (centres undefined): in [9], the Log K was found to be 5.76. In addition, in experiment [4], the negative-log Ki (pKi) came to 2.55.

`CC(=O)[C@@]1(O)CC[C@H]2[C@@H]3CC[C@@H]4C[C@H](O)CC[C@]4(C)[C@H]3CC[C@@]21C`: the Log K in experiment [1] was 5.

`O=C1C(CCN2CCC(c3noc4cc(F)ccc34)CC2)CC2=CC=CC12` (centres undefined): the Ki in experiment [2] is 1.74 nM.

Take `C[C@]12CCC(=O)C=C1CC[C@@H]1[C@@H]2[C@@H](O)C[C@@]2(C)[C@H]1CC[C@]2(O)C(=O)CO`: the Log K in [1] amounted to 7.88.

As for `O=C(c1ccc(F)cc1)C1CCN(CCC2CC3=CC=CC3C2=O)CC1` (centres undefined), the inhibition constant (Ki) in experiment [2] is 7.08 nM.

On to `O=C1CNC(=O)[C@@]2(N1)O[C@@H](CO)[C@@H](O)[C@H](O)[C@@H]2O`, for which the negative logarithm of the Ki (pKi) in [4] came to 4.22. Besides, the Log K in experiment [10] came out at 7.65.

Consider `C[C@]12CC[C@H]3[C@@H](CCC4=CC(=O)CC[C@@]43C)[C@@H]1CC[C@@H]2O`, for which the Log K in experiment [1] was 6.72.

`CC(=O)OCC(=O)[C@@]1(O)CC[C@H]2[C@@H]3CCC4=CC(=O)CC[C@]4(C)[C@H]3[C@@H](O)C[C@@]21C`: in experiment [1], the Log K amounted to 7.55.

On to `CC(=O)C1[C@H](C)CC2C3CC=C4CC(=O)CCC4(C)C3CCC21C` (some centres undefined), for which the Log K in experiment [1] amounted to 6.25.

For `CC(=O)[C@@]1(O)[C@H](O)C[C@H]2[C@@H]3CC=C4CC(=O)CC[C@]4(C)[C@H]3CC[C@@]21C`, the Log K in [1] stood at 6.14.

Compound `C[C@]12CC[C@H]3[C@@H](CCC4=CC(=O)CC[C@@H]43)[C@@H]1CC[C@@H]2O` had a Log K in experiment [1] of 7.2.

Regarding `NC(=O)C1OC(CO)C(O)C(O)C1O` (stereo in doubt; 2), in experiment [11], the Log K came to 5. Also, the pKi in experiment [4] turned out to be 3.43.

Take `C[C@]12C[C@H](O)[C@H]3[C@@H](CCC4=CC(=O)CC[C@@]43C)[C@@H]1CC[C@@H]2C(=O)CO`: the Log K in experiment [1] amounted to 7.88.

With `C[C@]12CC[C@H](O)CC1=CC[C@@H]1[C@@H]2CC[C@]2(C)C(=O)CC[C@@H]12`, the Log K in [1] came to 5.

As to `C[C@]12CCC(=O)C=C1CC[C@@H]1[C@@H]2[C@@H](O)C[C@]2(C=O)[C@@H](C(=O)CO)CC[C@@H]12`, in [7], the Log K came out at 6.28.

In [1], `C[C@@H]1C[C@@]2(C)C(=CC1=O)CC[C@H]1[C@@H]3CC[C@](O)(C(=O)CO)[C@@]3(C)C[C@H](O)[C@@]12F` yielded a Log K of 5.8.

In [7], `C[C@]12CCC(=O)C=C1CC[C@@H]1[C@@H]2CC[C@@]2(C)[C@H]1CC[C@]2(O)C(=O)CO` came in with a Log K of 7.88.

In [1], `C[C@]12CC[C@@H]3c4ccc(O)cc4CC[C@H]3[C@@H]1CC[C@@H]2O` had a Log K of 5.

The compound `C[C@]12CC[C@H]3[C@@H](CCC4=CC(=O)CC[C@@]43C)[C@@H]1CC[C@@H]2C(=O)CO` registered a Log K in [1] of 7.65.

In experiment [1], `C[C@]12CC[C@@H]3c4ccc(O)cc4CC[C@H]3[C@@H]1C[C@@H](O)[C@@H]2O` displayed a Log K of 5.

As for `N#CC[C@@H]1O[C@H](CO)[C@@H](O)[C@H](O)[C@H]1O`, the Log K in experiment [12] was found to be 5.61. For the same compound, the negative-log Ki (pKi) in [4] is 2.05.

As for `C[C@]12CCC(=O)C=C1CC[C@@H]1[C@@H]2C(=O)C[C@@]2(C)[C@H]1CC[C@]2(O)C(=O)CO`, the Log K in [1] was 6.89.

The compound `CC(=O)[C@H]1CC[C@H]2[C@@H]3CCC4=CC(=O)CC[C@]4(C)[C@H]3CC[C@]12C` displayed a Log Ki in [13] of 7.38 mM.

Regarding `CC(=O)[C@H]1CC[C@H]2[C@@H]3CCC4=CC(=O)CC[C@@H]4[C@H]3CC[C@]12C`, the Log K in experiment [1] is 7.12.

In [7], `C[C@]12C=CC(=O)C=C1CC[C@@H]1[C@@H]2[C@@H](O)C[C@@]2(C)[C@H]1CC[C@]2(O)C(=O)CO` yielded a Log K of 6.72.

For orientation: Ki means a measure of affinity in units of concentration, obtained from inhibition or displacement. High values mean a looser hold on the target, low ones a stronger hold on the target. In general, pKi refers to the negative decadic logarithm of the Ki, by convention in mol/L. A high value points to a small Ki.
